Experiments:
hHSL = biological target: T1, hHSL (Homo sapiens, UniProt Q05469); assay: hHSL off-target inhibition; assay type: biochemical; details: read-out: hHSL off-target inhibition [% inhibition at 100 μM]
T1 construct: made in house; host or cells: Expi cells (lysate)
T1 sequence (Q05469 1-1076): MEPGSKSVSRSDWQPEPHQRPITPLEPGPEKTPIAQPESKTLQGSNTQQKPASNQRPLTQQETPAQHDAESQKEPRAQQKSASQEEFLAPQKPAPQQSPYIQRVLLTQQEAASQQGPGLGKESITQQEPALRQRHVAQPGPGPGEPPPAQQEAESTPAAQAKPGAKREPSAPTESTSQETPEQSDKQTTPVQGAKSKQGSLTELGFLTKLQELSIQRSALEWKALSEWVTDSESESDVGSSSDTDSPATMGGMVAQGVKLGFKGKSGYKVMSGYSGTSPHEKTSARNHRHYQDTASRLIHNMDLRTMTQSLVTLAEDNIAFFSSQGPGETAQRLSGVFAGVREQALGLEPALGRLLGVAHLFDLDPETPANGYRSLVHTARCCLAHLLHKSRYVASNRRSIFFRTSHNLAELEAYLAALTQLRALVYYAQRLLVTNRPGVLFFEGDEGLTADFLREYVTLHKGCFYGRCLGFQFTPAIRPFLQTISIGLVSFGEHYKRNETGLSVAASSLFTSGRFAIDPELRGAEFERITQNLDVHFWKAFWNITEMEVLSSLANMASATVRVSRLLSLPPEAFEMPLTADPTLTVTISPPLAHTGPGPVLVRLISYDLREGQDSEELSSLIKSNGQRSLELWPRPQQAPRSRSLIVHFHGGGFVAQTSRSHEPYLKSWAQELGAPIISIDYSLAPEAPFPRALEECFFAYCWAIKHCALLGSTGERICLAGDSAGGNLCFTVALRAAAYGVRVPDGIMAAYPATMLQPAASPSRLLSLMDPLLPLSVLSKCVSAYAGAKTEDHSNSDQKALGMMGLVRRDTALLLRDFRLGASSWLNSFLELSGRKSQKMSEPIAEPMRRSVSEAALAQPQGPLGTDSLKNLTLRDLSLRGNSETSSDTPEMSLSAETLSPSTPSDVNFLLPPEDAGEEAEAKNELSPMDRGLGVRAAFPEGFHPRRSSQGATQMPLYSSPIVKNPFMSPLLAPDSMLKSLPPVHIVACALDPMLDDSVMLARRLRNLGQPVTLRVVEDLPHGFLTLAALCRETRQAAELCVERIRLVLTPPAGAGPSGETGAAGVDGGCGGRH
Method: Expi lysates expressing hHSL were preincubated with 100 μM Inhibitors for 30 min and incubated with 1 mM pNV substrate for 30 min. Samples measured in triplicates.

rat ATGL = biological target: T2, rat ATGL (Rattus norvegicus, UniProt P0C548); assay: Rat ATGL inhibition, Expi lysates + CGI-58; assay type: biochemical
T2 construct: made in house; host or cells: Expi cells (lysate)
T2 sequence (P0C548 1-478): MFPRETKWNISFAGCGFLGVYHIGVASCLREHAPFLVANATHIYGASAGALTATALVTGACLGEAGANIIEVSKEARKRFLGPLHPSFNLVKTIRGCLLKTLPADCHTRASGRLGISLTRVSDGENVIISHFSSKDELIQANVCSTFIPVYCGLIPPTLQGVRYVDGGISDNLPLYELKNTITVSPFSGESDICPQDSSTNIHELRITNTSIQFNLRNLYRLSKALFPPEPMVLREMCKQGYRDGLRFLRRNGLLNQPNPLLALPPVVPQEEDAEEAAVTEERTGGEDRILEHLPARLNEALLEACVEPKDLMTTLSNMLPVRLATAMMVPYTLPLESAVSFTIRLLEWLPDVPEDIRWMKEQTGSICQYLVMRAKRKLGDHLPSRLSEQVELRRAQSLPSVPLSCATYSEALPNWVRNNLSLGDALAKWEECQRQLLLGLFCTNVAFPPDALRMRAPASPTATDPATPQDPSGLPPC
Method: Lysates from Expi cells overexpressing ATGL from rat (Rattus norvegicus) were incubated with recombinant purified ATGL co-activator CGI-58 and ATGL inhibitors at 50 μM. Subsequently, substrate containing radiolabeled triolein was added and liberated FA were extracted and quantified by liquid scintillation. Inhibitors were dissolved in DMSO which was used as control. Samples were measured in triplicates.

Structure (SMILES)	inhibition at 100 µM (hHSL) [%]	inhibition at 50 µM (rat ATGL) [%]
CCOc1ccc(-c2cc(OC)cc(C(=O)OC(C)C)n2)cc1 [Example 35]	0	–
CC#CCOC(=O)c1csc(-c2ccc(OCC)cc2)n1 [Example 209, But-2-yn-1-yl 2-(4-ethoxyphenyl)thiazole-4-carboxylate]	40	40
C#C[C@H](C)OC(=O)c1csc(-c2ccc(OCC)cc2)n1 [Example 210, (S)-But-3-yn-2-yl 2-(4-ethoxyphenyl)thiazole-4-carboxylate]	0	15
CCOc1ccc(-c2cccc(C(=O)OCc3ccco3)n2)cc1 [Example 190, Furan-2-ylmethyl 6-(4-ethoxyphenyl)picolinate]	0	40
CCOc1ccc(-c2nc(C(=O)OCc3ccc(Br)s3)cs2)cc1 [Example 224, (5-Bromothiophen-2-yl)methyl 2-(4-ethoxyphenyl)thiazole-4-carboxylate]	95	40
COc1cc(C(=O)OC(C)C)nc(-c2ccc(OC(C)C)cc2)c1 [Example 201, Isopropyl 6-(4-isopropoxyphenyl)-4-methoxypicolinate]	0	0
CCOc1ccc(-c2nc(C(=O)OCc3ccc(Cl)s3)cs2)cc1 [Example 223, (5-Chlorothiophen-2-yl)methyl 2-(4-ethoxyphenyl)thiazole-4-carboxylate]	40	40
C#C[C@@H](C)OC(=O)c1csc(-c2ccc(OCC)cc2)n1 [Example 211, (R)-But-3-yn-2-yl 2-(4-ethoxyphenyl)thiazole-4-carboxylate]	40	50
CCOc1ccc(-c2cccc(C(=O)OCc3cccs3)n2)cc1 [Example 189, Thiophen-2-ylmethyl 6-(4-ethoxyphenyl)picolinate]	0	10
CCCCOC(=O)c1csc(-c2ccc(OCC)cc2)n1 [Example 212, Butyl 2-(4-ethoxyphenyl)thiazole-4-carboxylate]	0	40
CCOc1ccc(-c2nc(C(=O)OCc3ccsc3)cs2)cc1 [Example 215, Thiophen-3-ylmethyl 2-(4-ethoxyphenyl)thiazole-4-carboxylate]	30	50
CCOc1ccc(-c2nc(C(=O)OCc3cccs3)cs2)cc1 [Example 152, Thiophen-2-ylmethyl 2-(4-ethoxyphenyl)thiazole-4-carboxylate]	25	10
CCOc1ccc(-c2nc(C(=O)OCc3ccoc3)cs2)cc1 [Example 216, Furan-3-ylmethyl 2-(4-ethoxyphenyl)thiazole-4-carboxylate]	30	50

Source: patent publication US20220289698A1, “INHIBITORS OF HUMAN ATGL” (Karl-Franzens-Universität Graz, priority 2019, published 2022)
